Experimental data: US5691338A, “1,2-dithiole-3 thiones for the treatment of reverse transcriptase-dependent viral infections” (priority 1995, dated 1997)
Read-outs that look alike come from different tables or passages of the source.

Key:
HIV-1 (HTLVIIIB) = experiment: microbe, parasite or virus in culture; settings: for synergy in inhibiting HIV-1 replication: p24 release / IFA, H9 cells, high viral inhibition
Procedure: The effects for test compounds were assessed by means of both IFA and p24 release. In general, the following protocol was followed: H9 cells were infected with HIV-1 at 1000 50% infective doses of viruses/10^6 cells. Virus was allowed to adsorb for 1 h, after which unadsorbed virus was removed by centrifugation. The cells were resuspended and washed twice with PBS (without Ca^+2 or Mg^+2 salts) and centrifuged to collect the cell pellet (150×g×10 min). Cells were suspended in fresh medium and added at a final cell density of 500,000 cells/ml in a 96-well plate with media containing 0.1% DMSO and various concentrations of test compounds. The cells were re-fed freshly prepared media containing 0.1% DMSO±test compounds on day four (for preinduction experiments, cells were exposed to inducers on days -2, 0, and +4 days relative to infection). After seven days, cells were examined for cytoxicity by trypan blue exclusion, the degree of infection with HIV-1 by IFA, and the supernatants were assayed for p24 levels according to the manufacturer's directions. The IFA procedure can be summarized as follows: The cells were washed twice in PBS and were placed in 5 mm 12-well slides. After allowing the slides to dry and fixing the cells with acetone for 5 min, 10 μl of HIV-1 positive serum in 40 μl PBS was added to each well and allowed to incubate at 37° C. for 30 min. After incubation, the slides were washed twice with PBS and incubated at 37° C. for 30 min with 2.5 μl goat anti-human IgG-fluorescein isothiocyanate conjugate in 50 μl PBS containing 0.01% Evans Blue per well. The slides were then washed twice with PBS, dried, and mounted with 50% glycerol in PBS, and scored for the percentage of fluorescent cells by fluorescent microscopy.
Statistical significance for GSH and QR levels were established by the unpaired t test using the INSTAT statistics program (Graphpad, San Diego, Calif.). The Ki of oltipraz was determined by performing Segal transformations (26) of Dixon plots. […] Calculations were performed on spreadsheets using Lotus 1-2-3 software (Cambridge, Mass.).

[1] = cited from earlier work

Cc1c(-c2cnccn2)ssc1=S [compound 11, 4-methyl-5-(2-pyrazinyl)-1,2-dithiole-3-thione]
IC50 (HIV-1 (HTLVIIIB); Human immunodeficiency virus 1, H9, read-out: IC50 as determined by p24 antigen release assays): 14.8 ± 3.1 µM
IC50 (HIV-1 (HTLVIIIB); Human immunodeficiency virus 1, H9, read-out: median dose (p24 release)): 19.4 µM
synergy in inhibiting HIV-1 replication (HIV-1 (HTLVIIIB); listed as Oltipraz): highly synergistic with azidothymidine (AZT)
synergy in inhibiting HIV-1 replication (HIV-1 (HTLVIIIB); listed as oltipraz): acts synergistically with AZT
tolerability at anti-HIV-1 doses ([1]; in vivo): well tolerated
tolerability of high doses ([1]; single or split doses of 20-35 mg/kg, treatment of schistosomiasis): can be tolerated
